Patent US11433070B2, “Synergistic anti-inflammatory compositions” (The Procter & Gamble Company, priority 2019, dated 2022)

How the values were obtained:
[1] = system: PGE2 release from TERT keratinocytes (tKC); assay: PGE2 assay: inhibition of PGE2 release from UVB-stressed keratinocytes, normalized to ATP; assay type: cell-based, human; settings: for AVG PGE2 % Control / AVG PGE2 % Inhibition: piroctone olamine 1E-7% (w/v), alone or combined (observed), 15 mJ/cm2 UVB, 18-24 h; for Inhibiting PGE2 release from keratinocytes, individually (in words): each material alone
Excerpt: Inhibiting the Cell's Inflammation Response to a Stressor-Prostaglandin E2 (“PGE2”) Assay. […] PGE2 is a hormone-like substance that is known to participate in modulation of inflammation. Cellular inflammation is associated with a variety of hair, skin and scalp conditions, and thus inhibiting PGE2 activation vis-à-vis cellular inflammation may help treat these types of hair, skin and scalp conditions. TERT keratinocytes (tKC) are human keratinocytes which have been transfected with the human telomerase reverse transcriptase gene to immortalize the cells. They are obtained from Jerry Shay, University of Texas, Southwestern and plated at 40,000 cells/well into 24-well plates in 1 ml/well volume. EpiLife Medium (Life Technologies cat #[…]500) supplemented with keratinocyte growth supplement (Life technologies cat #S-001-5) is used as the assay media. The cells are grown to confluence/near confluence, (typically 24 hours after plating 40,000 cells/well in 24 well plate) and then subjected to 15 mJ/cm^2 UVB-stress (typically 14-16 exposure time in BioSun). […] The supernatant is removed from each well, and the cells are rinsed with 2 ml/well medium (without supplements). A Cell Titer-Glo assay (Promega cat #G7571; Madison Wis.) is used to measure ATP activity, which is conducted on the cells for normalization. The supernatant is tested in a PGE2 assay (Prostaglandin E2 Assay kit from Cisbio Bioassays cat #62P2APEB) according to the manufacturer's instructions. The PGE2 results are normalized to ATP activity. The PGE2 quantitation (pg/mL) from the supernatant is divided by the normalization factor (treatment ATP/control ATP). […] Synergy factor is simply the ratio of observed combination/expected combination.

[2] = system: TERT keratinocytes (tKC); assay: Cell Titer-Glo assay measuring ATP activity, used for normalization; assay type: cell-based, human; settings: example calculation; vehicle control 704567
Description: TERT keratinocytes (tKC) are human keratinocytes which have been transfected with the human telomerase reverse transcriptase gene to immortalize the cells. They are obtained from Jerry Shay, University of Texas, Southwestern and plated at 40,000 cells/well into 24-well plates in 1 ml/well volume. EpiLife Medium (Life Technologies cat #[…]500) supplemented with keratinocyte growth supplement (Life technologies cat #S-001-5) is used as the assay media. The cells are grown to confluence/near confluence, (typically 24 hours after plating 40,000 cells/well in 24 well plate) and then subjected to 15 mJ/cm^2 UVB-stress (typically 14-16 exposure time in BioSun). […] The supernatant is removed from each well, and the cells are rinsed with 2 ml/well medium (without supplements). A Cell Titer-Glo assay (Promega cat #G7571; Madison Wis.) is used to measure ATP activity, which is conducted on the cells for normalization. The supernatant is tested in a PGE2 assay (Prostaglandin E2 Assay kit from Cisbio Bioassays cat #62P2APEB) according to the manufacturer's instructions. The PGE2 results are normalized to ATP activity. The PGE2 quantitation (pg/mL) from the supernatant is divided by the normalization factor (treatment ATP/control ATP).

[3] = cited from earlier work
[4] = 1:1 azoxystrobin:PO block, azoxystrobin 1E-7%
[5] = 1:10 azoxystrobin:PO block, azoxystrobin 1E-8%
[6] = 1:50 azoxystrobin:PO block, azoxystrobin 2E-9%
[7] = 4:1 azoxystrobin:PO block, azoxystrobin 4E-7%

SMILES | AVG PGE2 % Control [1, 4] [%] | AVG PGE2 % Inhibition [1, 4] [%] | AVG PGE2 % Control [1, 5] [%] | AVG PGE2 % Inhibition [1, 5] [%] | AVG PGE2 % Control [1, 6] [%] | AVG PGE2 % Inhibition [1, 6] [%] | AVG PGE2 % Control [1, 7] [%] | AVG PGE2 % Inhibition [1, 7] [%] | Inhibiting PGE2 release from keratinocytes, individually (in words) [1] | % inhibition (PGE2) ([1]; example calculation vs vehicle control) [%] | Normalized PGE2 value ([1]; example calculation, PGE2 quantitation divided by normalization factor, control 2458) | PGE2 quantitation ([1]; example calculation, supernatant, before ATP normalization, vehicle control 2458 pg/mL) [pg/mL] | Luminescence in ATP assay [2] | Solubility in water (in words) [3]
CO/C=C(/C(=O)OC)c1ccccc1Oc1cc(Oc2ccccc2C#N)ncn1 [azoxystrobin] | 92 | 8 | 99 | 1 | 99 | 1 | 87 | 13 | relatively weak | 8 | 2261 | 2347 | 678903 | low solubility in water
Cc1cc(CC(C)CC(C)(C)C)n(O)c(=O)c1.NCCO (centres unmarked) [piroctone olamine, 1-Hydroxy-4-methyl-6-(2,4,4-trimethylpentyl)-2-pyridone monoethanolamine salt] | 96.5 | 3.5 | 96.2 | 3.8 | 96.2 | 3.8 | 96.2 | 3.8 | relatively weak | – | – | – | – | –
